SMILES strings stand for the structures.

A short description of the series: Stability of RSSH precursors with glutathione by HPLC. It is filed as physicochemical. As to conditions: GSH 500 µM (5 equiv), PBS pH 7.4, 37 °C; for half-life at 100 µM: PBS with glutathione (500 µM), pH 7.4, precursor 100 µM, read-out: decomposition half-life (t1/2) in the presence of GSH; for decomposition half-life (t1/2) in the presence of GSH / decomposition rate constant in the presence of GSH: precursor 100 µM; for decomposition rate constant in the presence of GSH: in min-1. The protocol:
We next evaluated whether our newly developed precursors generate RSSH in the presence of thiols, which are abundant in biological systems. We examined their reactivity toward glutathione (GSH, 5 equiv) in PBS (pH 7.4, 37 °C), and precursor consumption was quantified by HPLC. […] We attribute this difference to their intrinsic reactivity. As shown previously,[23] AST donors can undergo nucleophilic attack either at the carbonyl carbon, producing the intended RSSH and a thiocarbonate byproduct (Scheme 3a, Path A), or at the disulfide bond, giving an unsymmetrical disulfide and a thiocarbonate intermediate (Scheme 3a, Path B). The higher electrophilicity of the perthiocarbonate carbonyl likely explains the faster consumption of AST derivatives. In contrast, and consistent with earlier studies,[24] APT-1 and APT-1-TPP react mainly through thiol–disulfide exchange (Scheme 3b, Path B), as attack at the perthiocarbamate carbonyl is disfavored due to its lower electrophilicity compared with the perthiocarbonate in AST donors. […]
(n = 3), and data are reported as mean ± standard deviation (SD).
Stability of RSSH Precursors with Glutathione by HPLC
Stock solutions of RSSH precursor (10 mM in DMSO) and GSH (20 mM in PBS, pH 7.4) were prepared immediately prior to the assay. The RSSH precursor (100 µM) was incubated with GSH (500 µM) in phosphate-buffered saline (PBS, pH 7.4) at 37 °C. At designated time points, 200 μL aliquots were withdrawn and immediately quenched by mixing with an equal volume of ice-cold 0.1% formic acid. Samples were analyzed by Agilent HPLC with UV detection using a C18 reverse-phase column (Phenomenex Luna C18, 4.6 × 150 mm, 5 μm) at 25 °C with a flow rate of 1.0 mL/min and an injection volume of 20 μL. The gradient elution (all solvents v/v, containing 0.1% trifluoroacetic acid) was as follows: 0–10 min, linear gradient from 90% water / 10% acetonitrile to 50% water / 50% acetonitrile; 10–18 min, to 10% water / 90% acetonitrile; 18–20 min, held at 10% water / 90% acetonitrile; 20–25 min, return to 90% water / 10% acetonitrile.
Absorbance was monitored at 275 nm. The percentage of precursor remaining at each time point was calculated by comparing the absorbance at 275 nm to the initial value. All experiments were performed in triplicate (n = 3), and data are reported as mean ± standard deviation (SD).
Figure S19. Stability profiles of (A) AST-2, (B) APT-1, (C) AST-2-TPP, and (D) APT-1-TPP in PBS, pH 7.4 at 37 °C in the presence of GSH. Decomposition rate constant for AST-2, APT-1, AST-2-TPP, and APT-1- […]
Decomposition half-lives for AST-2, APT-1, AST-2-TPP, and APT-1-TPP are 8.6 ± 0.1 min, 39.7 ± 1.2 min, 6.3 ± 0.1 min, and 56.2 ± 4.0 min, respectively. Data are mean ± standard deviation (SD) (n = 3)
(1 picture or pasted object on this page, not shown here)

As for `CC(=O)NC(C(=O)N(C)CCC[P+](c1ccccc1)(c1ccccc1)c1ccccc1)C(C)(C)SSC(=O)N(C)CCOC(C)=O` (stereo not drawn) [APT-1-TPP], the half-life at 100 µM worked out at 56.2 ± 4 min, the “decomposition half-life (t1/2) in the presence of GSH” value (shortened to “decomposition half-life”) was found to be 56 min and the “decomposition rate constant in the presence of GSH” value (from here on “decomposition rate constant”) is recorded as 0.01236 ± 0.00066.

Take `COC(=O)C(NC(C)=O)C(C)(C)SSC(=O)N(C)CCOC(C)=O` (stereo not drawn) [APT-1]: the half-life at 100 µM stood at 39.7 ± 1.2 min, the “decomposition half-life” value is listed as 40 min and the “decomposition rate constant” value worked out at 0.01749 ± 0.00052.

Consider `COC(=O)SSC(C)(C)C(NC(C)=O)C(=O)N(C)CCC[P+](c1ccccc1)(c1ccccc1)c1ccccc1` (stereo not drawn) [AST-2-TPP], for which the half-life at 100 µM is 6.3 ± 0.1 min, the “decomposition half-life” value stood at 6 min and the “decomposition rate constant” value was 0.1094 ± 0.00183.

For `COC(=O)SSC(C)(C)C(NC(C)=O)C(=O)OC` (stereo not drawn) [AST-2], the half-life at 100 µM turned out to be 8.6 ± 0.1 min, the “decomposition half-life” value amounted to 9 min and the “decomposition rate constant” value stood at 0.08081 ± 0.00105.

(Values after article PMC13224100, “Esterase-Responsive Mitochondria-Targeted Hydropersulfide Donors Mitigate Doxorubicin Cardiotoxicity While Preserving Anticancer Activity” (Angewandte Chemie (International ed. in English), 2025).)
